Activity calls are given as the source filed them. How the calls were made is not given here.
System: CCRIS mutagenicity, Ames/micronucleus/aberration tests
Assay: CCRIS mutagenicity studies
[1] = Test System: AMES SALMONELLA TYPHIMURIUM, Strain/Indicator: TA98, Metabolic Activation: NONE, Method: PREINCUBATION
[2] = Test System: AMES SALMONELLA TYPHIMURIUM, Strain/Indicator: TA98, Metabolic Activation: NONE, Method: STANDARD PLATE
[3] = Test System: AMES SALMONELLA TYPHIMURIUM, Strain/Indicator: TA98, Metabolic Activation: RAT, LIVER, S-9, AROCLOR 1254, Method: STANDARD PLATE
[4] = Test System: AMES SALMONELLA TYPHIMURIUM, Strain/Indicator: TA100, Metabolic Activation: NONE, Method: PREINCUBATION
[5] = Test System: AMES SALMONELLA TYPHIMURIUM, Strain/Indicator: TA100, Metabolic Activation: NONE, Method: STANDARD PLATE
[6] = Test System: AMES SALMONELLA TYPHIMURIUM, Strain/Indicator: TA100, Metabolic Activation: RAT, LIVER, S-9, AROCLOR 1254, Method: STANDARD PLATE
[7] = Test System: AMES SALMONELLA TYPHIMURIUM, Strain/Indicator: TA1535, Metabolic Activation: NONE, Method: STANDARD PLATE
[8] = Test System: AMES SALMONELLA TYPHIMURIUM, Strain/Indicator: TA1535, Metabolic Activation: RAT, LIVER, S-9, AROCLOR 1254, Method: STANDARD PLATE
[9] = Test System: AMES SALMONELLA TYPHIMURIUM, Strain/Indicator: TA1537, Metabolic Activation: NONE, Method: STANDARD PLATE
[10] = Test System: AMES SALMONELLA TYPHIMURIUM, Strain/Indicator: TA1537, Metabolic Activation: RAT, LIVER, S-9, AROCLOR 1254, Method: STANDARD PLATE
[11] = Test System: AMES SALMONELLA TYPHIMURIUM, Strain/Indicator: TA1538, Metabolic Activation: NONE, Method: STANDARD PLATE
[12] = Test System: AMES SALMONELLA TYPHIMURIUM, Strain/Indicator: TA1538, Metabolic Activation: RAT, LIVER, S-9, AROCLOR 1254, Method: STANDARD PLATE
[13] = Test System: AMES SALMONELLA TYPHIMURIUM, Strain/Indicator: TA100, Metabolic Activation: RAT, LIVER, S-9, PHENOBARBITAL AND 5,6-BENZOFLAVONE, Method: PREINCUBATION

SMILES: O=c1[nH]c(=O)n([C@H]2C[C@H](O)[C@@H](CO)O2)cc1CCCl
- mutagenic call (End Point: IN VITRO MICRONUCLEUS, Test System: V79 CHINESE HAMSTER CELLS, Metabolic Activation: NONE): inactive; negative
- mutagenic call (End Point: IN VITRO MICRONUCLEUS, Test System: V79 CHINESE HAMSTER CELLS, Metabolic Activation: RAT, LIVER, S-9, AROCLOR 1254): inactive; negative
- mutagenic call (End Point: IN VIVO MICRONUCLEUS, Test System: BONE MARROW POLYCHROMATIC ERYTHROCYTES, Species: MOUSE, Strain/Sex: CD-1/MALE, FEMALE, Route: GAVAGE): inactive; negative
- mutagenic call (Test System: AMES SALMONELLA TYPHIMURIUM, Strain/Indicator: TA97, Metabolic Activation: NONE, Method: PREINCUBATION): inactive; negative
- mutagenic call (Test System: AMES SALMONELLA TYPHIMURIUM, Strain/Indicator: TA97, Metabolic Activation: RAT, LIVER, S-9, AROCLOR 1254, Method: PREINCUBATION): inactive; negative
- mutagenic call [1]: inactive; negative
- mutagenic call [2]: inactive; negative
- mutagenic call (Test System: AMES SALMONELLA TYPHIMURIUM, Strain/Indicator: TA98, Metabolic Activation: RAT, LIVER, S-9, AROCLOR 1254, Method: PREINCUBATION): inactive; negative
- mutagenic call [3]: inactive; negative
- mutagenic call [4]: inactive; negative
- mutagenic call [5]: inactive; negative
- mutagenic call (Test System: AMES SALMONELLA TYPHIMURIUM, Strain/Indicator: TA100, Metabolic Activation: RAT, LIVER, S-9, AROCLOR 1254, Method: PREINCUBATION): inactive; negative
- mutagenic call [6]: inactive; negative
- mutagenic call (Test System: AMES SALMONELLA TYPHIMURIUM, Strain/Indicator: TA102, Metabolic Activation: NONE, Method: PREINCUBATION): inactive; negative
- mutagenic call (Test System: AMES SALMONELLA TYPHIMURIUM, Strain/Indicator: TA102, Metabolic Activation: NONE, Method: STANDARD PLATE): active; positive
- mutagenic call (Test System: AMES SALMONELLA TYPHIMURIUM, Strain/Indicator: TA102, Metabolic Activation: RAT, LIVER, S-9, AROCLOR 1254, Method: PREINCUBATION): inactive; negative
- mutagenic call (Test System: AMES SALMONELLA TYPHIMURIUM, Strain/Indicator: TA102, Metabolic Activation: RAT, LIVER, S-9, AROCLOR 1254, Method: STANDARD PLATE): active; positive
- mutagenic call (Test System: AMES SALMONELLA TYPHIMURIUM, Strain/Indicator: TA104, Metabolic Activation: NONE, Method: PREINCUBATION): inactive; negative
- mutagenic call (Test System: AMES SALMONELLA TYPHIMURIUM, Strain/Indicator: TA104, Metabolic Activation: RAT, LIVER, S-9, AROCLOR 1254, Method: PREINCUBATION): inactive; negative
- mutagenic call (Test System: AMES SALMONELLA TYPHIMURIUM, Strain/Indicator: TA1535, Metabolic Activation: NONE, Method: PREINCUBATION): inactive; negative
- mutagenic call [7]: active; positive
- mutagenic call (Test System: AMES SALMONELLA TYPHIMURIUM, Strain/Indicator: TA1535, Metabolic Activation: RAT, LIVER, S-9, AROCLOR 1254, Method: PREINCUBATION): inactive; negative
- mutagenic call [8]: active; positive
- mutagenic call (Test System: AMES SALMONELLA TYPHIMURIUM, Strain/Indicator: TA1537, Metabolic Activation: NONE, Method: PREINCUBATION): inactive; negative
- mutagenic call [9]: inactive; negative
- mutagenic call (Test System: AMES SALMONELLA TYPHIMURIUM, Strain/Indicator: TA1537, Metabolic Activation: RAT, LIVER, S-9, AROCLOR 1254, Method: PREINCUBATION): inactive; negative
- mutagenic call [10]: inactive; negative
- mutagenic call (Test System: AMES SALMONELLA TYPHIMURIUM, Strain/Indicator: TA1538, Metabolic Activation: NONE, Method: PREINCUBATION): inactive; negative
- mutagenic call [11]: inactive; negative
- mutagenic call (Test System: AMES SALMONELLA TYPHIMURIUM, Strain/Indicator: TA1538, Metabolic Activation: RAT, LIVER, S-9, AROCLOR 1254, Method: PREINCUBATION): inactive; negative
- mutagenic call [12]: inactive; negative
- mutagenic call (Test System: CHINESE HAMSTER V-79, Strain/Indicator: V-79/8-AZAGUANINE, Metabolic Activation: NONE): active; positive

SMILES: ClC(Cl)=C(c1ccc(Cl)cc1)c1ccc(Cl)cc1
- mutagenic call (End Point: IN VITRO CHROMOSOMAL ABERRATIONS, Test System: CHINESE HAMSTER OVARY CELLS, Metabolic Activation: NONE): inactive; negative
- mutagenic call (End Point: IN VITRO CHROMOSOMAL ABERRATIONS, Test System: CHINESE HAMSTER OVARY CELLS, Metabolic Activation: RAT, LIVER, S-9, AROCLOR 1254): inactive; negative
- mutagenic call (Test System: AMES SALMONELLA TYPHIMURIUM, Strain/Indicator: TA97, Metabolic Activation: NONE, Method: STANDARD PLATE): inactive; negative
- mutagenic call (Test System: AMES SALMONELLA TYPHIMURIUM, Strain/Indicator: TA97, Metabolic Activation: RAT, LIVER, S-9, AROCLOR 1254, Method: STANDARD PLATE): inactive; negative
- mutagenic call [2]: inactive; negative
- mutagenic call [3]: inactive; negative
- mutagenic call [5]: inactive; negative
- mutagenic call [6]: inactive; negative
- mutagenic call (Test System: CHINESE HAMSTER V-79, Strain/Indicator: V-79/8-AZAGUANINE, Metabolic Activation: NONE, Method: STANDARD PLATE): active; positive
- mutagenic call (Test System: MOUSE LYMPHOMA, Strain/Indicator: L5178Y (TK+/TK-), Metabolic Activation: NONE, Method: SUSPENSION/PLATE): active; positive

SMILES: CC(O)c1ccc2ccc3cccc4ccc1c2c34 (stereo unspecified)
- mutagenic call (Test System: AMES SALMONELLA TYPHIMURIUM, Strain/Indicator: TA98, Metabolic Activation: HUMAN, LIVER, CYTOSOL, PAPS, Method: PREINCUBATION): active; positive

SMILES: CN(C)c1ccc(N=Nc2cccnc2)cc1
- mutagenic call [2]: inactive; negative
- mutagenic call [3]: inactive; negative
- mutagenic call [5]: inactive; negative
- mutagenic call [6]: inactive; negative
- mutagenic call [7]: inactive; negative
- mutagenic call [8]: inactive; negative
- mutagenic call [9]: inactive; negative
- mutagenic call [10]: inactive; negative
- mutagenic call [11]: inactive; negative
- mutagenic call [12]: inactive; negative

SMILES: Cc1cc2c3ccccc3cc3ccc4cccc1c4c32
- mutagenic call (Test System: AMES SALMONELLA TYPHIMURIUM, Strain/Indicator: TA100, Metabolic Activation: RAT, INTACT HEPATOCYTES, AROCLOR 1254, Method: PREINCUBATION): active; positive
- mutagenic call (Test System: AMES SALMONELLA TYPHIMURIUM, Strain/Indicator: TA100, Metabolic Activation: RAT, NADPH-FORTIFIED HOMOGENIZED HEPATOCYTES, AROCLOR 1254, Method: PREINCUBATION): active; positive

SMILES: N=c1ccc2c(-c3ccccc3C(=O)O)c3ccc(N)cc3oc-2c1
- mutagenic call [11]: inactive; negative
- mutagenic call [12]: inactive; negative

SMILES: Cc1ccc2nc3n(C)c4ccc(C)cc4c(C)c-3c2c1
- mutagenic call [3]: active; positive

SMILES: CC(O)C(=O)[O][Al]([O]C(=O)C(C)O)[O]C(=O)C(C)O (stereo unspecified)
- mutagenic call (Test System: AMES SALMONELLA TYPHIMURIUM, Strain/Indicator: TA92, Metabolic Activation: NONE, Method: STANDARD PLATE): inactive; negative
- mutagenic call [2]: inactive; negative
- mutagenic call [5]: inactive; negative
- mutagenic call (Test System: AMES SALMONELLA TYPHIMURIUM, Strain/Indicator: TA104, Metabolic Activation: NONE, Method: STANDARD PLATE): inactive; negative

SMILES: Nc1cc([N+](=O)[O-])ccc1CO
- mutagenic call [1]: active; positive
- mutagenic call (Test System: AMES SALMONELLA TYPHIMURIUM, Strain/Indicator: TA98, Metabolic Activation: RAT, LIVER, S-9, PHENOBARBITAL AND 5,6-BENZOFLAVONE, Method: PREINCUBATION): active; positive
- mutagenic call [4]: active; positive
- mutagenic call [13]: active; positive

SMILES: Nc1cccc2ncc(F)cc12
- mutagenic call [13]: active; positive

SMILES: COc1ccc([C@H]2O[C@H]2C(=O)c2ccccc2)cc1
- mutagenic call [2]: inactive; negative
- mutagenic call [3]: inactive; negative
- mutagenic call [5]: active; positive
- mutagenic call [6]: active; positive

Source: PubChem BioAssay AID1259407 (Chemical Carcinogenesis Research Information System (CCRIS), 2018)
